Data on 38 compounds can be found in ChEMBL document CHEMBL1146812 (Bioorg Med Chem Lett, 2004).

The target of test [1] is Melatonin receptor type 1A (Homo sapiens, UniProt P48039). The experiment in a line: Binding affinity against human Melatonin receptor type 1A by using 2-[125I]iodomelatonin as radioligand.
Test [2] has as its target T1, Melatonin receptor type 1B (Homo sapiens, UniProt P49286).
T1 sequence (P49286 whole entry): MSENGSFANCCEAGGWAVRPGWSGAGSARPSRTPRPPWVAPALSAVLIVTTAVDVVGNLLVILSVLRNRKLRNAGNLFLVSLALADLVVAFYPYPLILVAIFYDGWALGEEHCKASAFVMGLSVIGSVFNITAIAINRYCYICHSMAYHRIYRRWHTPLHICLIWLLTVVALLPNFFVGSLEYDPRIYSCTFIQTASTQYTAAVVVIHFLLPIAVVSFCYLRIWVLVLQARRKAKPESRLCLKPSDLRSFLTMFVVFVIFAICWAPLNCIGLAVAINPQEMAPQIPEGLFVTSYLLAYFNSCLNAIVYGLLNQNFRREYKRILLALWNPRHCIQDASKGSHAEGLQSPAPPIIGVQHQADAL
Put plainly: Binding affinity against human Melatonin receptor type 1B by using 2-[125I]iodomelatonin as radioligand.

The target in test [3] is T2, Melatonin receptor (Homo sapiens, UniProt P48039+P49286). The experiment in a line: Intrinsic activity against human melatonin receptor (MT). It is filed as protein assay.
T2 sequence (P48039 whole entry, looked up, one chain of several): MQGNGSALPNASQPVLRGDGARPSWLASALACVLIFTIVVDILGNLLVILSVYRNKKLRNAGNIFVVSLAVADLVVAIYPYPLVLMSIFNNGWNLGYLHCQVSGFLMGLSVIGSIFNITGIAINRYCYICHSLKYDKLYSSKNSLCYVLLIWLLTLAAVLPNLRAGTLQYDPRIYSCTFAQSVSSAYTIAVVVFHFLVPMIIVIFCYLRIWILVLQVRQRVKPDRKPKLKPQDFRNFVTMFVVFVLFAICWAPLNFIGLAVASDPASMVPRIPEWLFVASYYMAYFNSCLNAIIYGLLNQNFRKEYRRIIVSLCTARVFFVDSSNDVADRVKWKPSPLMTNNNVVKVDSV
The target of test [4] is T2, Melatonin receptor. Put plainly: Agonist activity for its ability to inhibit forskolin-stimulated cAMP accumulation against MT1 receptor. It is filed as functional.
For test [5], the target named is Melatonin receptor type 1B (Homo sapiens) (UniProt P49286). The experiment in a line: Intrinsic activity against human melatonin receptor (MT).
Test [6] has the same target. The experiment in a line: Agonist activity for its ability to inhibit forskolin-stimulated cAMP accumulation against MT2 receptor. A general note: cAMP levels reflect the balance of adenylyl cyclase and phosphodiesterase activity.

Sequence of Melatonin receptor type 1A (P48039 whole entry): as the sequence (P48039 whole entry, looked up, one chain of several) above

By Ki is commonly meant the equilibrium dissociation constant of an inhibitor or competing ligand from its target. Read a high Ki as a looser hold on the target. `CCCC(=O)NCCCc1cccc2nc(C(C)C)oc12`: the inhibition constant Ki in test [1] came to 119 nM; in test [2], 16 nM.
As to `CC(=O)NCCCc1cccc2nc(C)oc12`, the Ki in test [1] was found to be 24 nM; in test [2] it was 5.3 nM.
In the same order, the values of `CCC(=O)NCCCc1cccc2nc(-c3ccccc3)oc12` are 13.1 nM and 10 nM.
Turning to `CCCc1nc2cccc(CCCNC(=O)CC)c2o1`, the results for the Ki in test [1] and in test [2] were 51 nM and 27 nM, respectively.
In the case of `CC(C)c1nc2cccc(CCCNC(=O)C3CC3)c2o1`, the Ki stood at 34 nM in test [1] and 114 nM in test [2].
With `CC(C)C(=O)NCCCc1cccc2nc(-c3ccccc3)oc12`, the Ki in test [1] is 87 nM; in test [2] it was 57 nM.
Taken in the same sequence, the figures for `CCC(=O)NCCCc1cccc2nc(C(C)C)oc12` were 142 nM and 15 nM.
For `CCC(=O)NCCCc1cccc2ncoc12`, the results for the Ki in test [1] and in test [2] were 6.6 nM and 1.8 nM, respectively.
Take `CCc1nc2cccc(CCCNC(C)=O)c2o1`: the Ki in test [1] was 9 nM; in test [2], 2.3 nM.
Taken in the same sequence, the figures for `CCCc1nc2cccc(CCCNC(C)=O)c2o1` were 183 nM and 35 nM.
In the same order, the values of `CCC(=O)NCCCc1cccc2nc(CC)oc12` are 3.5 nM and 1 nM.
Taken in the same sequence, the figures for `CCCC(=O)NCCCc1cccc2nc(CCC)oc12` were 166 nM and 22 nM.
As to `CC(=O)NCCCc1cccc2nc(CCCCc3ccccc3)oc12`, the Ki amounted to 1.3 nM in test [1] and 16 nM in test [2].
In the same order, the values of `CC(=O)NCCCc1cccc2nc(C(C)C)oc12` are 116 nM and 35 nM.
Taken in the same sequence, the figures for `CCCC(=O)NCCCc1cccc2nc(C)oc12` were 2.3 nM and 2.2 nM.
In the same order, the values of `Cc1nc2cccc(CCCNC(=O)C(C)C)c2o1` are 3 nM and 2.3 nM.
`CCC(=O)NCCCc1cccc2nc(CCCCc3ccccc3)oc12`: the Ki in test [1] amounted to 0.76 nM; in test [2], 14 nM.
For `CC(=O)NCCCc1cccc2ncoc12`, the values for the inhibition constant (Ki) in test [1] and in test [2] were 30 nM and 4.3 nM, respectively.
In the same order, the values of `CCc1nc2cccc(CCCNC(=O)C3CC3)c2o1` are 4.5 nM and 4.7 nM.
As to `CCCC(=O)NCCCc1cccc2nc(CCCCc3ccccc3)oc12`, the inhibitory constant (Ki) worked out at 3.3 nM in test [1] and 29 nM in test [2].
Turning to `CCCc1nc2cccc(CCCNC(=O)C3CC3)c2o1`, the inhibition constant Ki is 44 nM in test [1] and 7.6 nM in test [2].
Regarding `CCNC(=O)NCCCc1cccc2nc(CC)oc12`, the Ki amounted to 75 nM in test [1] and 12 nM in test [2].
The term EC50 denotes the concentration giving half of the maximal effect. The low end stands for greater potency, the high end for weaker potency. For the compound `CCC(=O)NCCCc1cccc2nc(C)oc12`, the Ki in test [1] and in test [2] was 2.8 nM each time. The Activity on Melatonin receptor [3] was found to be 0.98. Also, on Melatonin receptor [4], the EC50 is on record as 0.26 nM.
As for `CCCC(=O)NCCCc1cccc2ncoc12`, the results for the Ki in test [1] and in test [2] were 9.9 nM and 3.7 nM, respectively.
Consider `CCc1nc2cccc(CCCNC(=O)C(C)C)c2o1`, for which the inhibitory constant (Ki) came out at 13.2 nM in test [1] and 4.5 nM in test [2].
As to `CCCc1nc2cccc(CCCNC(=O)NCC)c2o1`, the values for the inhibitory constant (Ki) in test [1] and in test [2] were 492 nM and 36 nM, respectively.
As for `CC(C)C(=O)NCCCc1cccc2nc(CCCCc3ccccc3)oc12`, the Ki in test [1] was 1.3 nM; in test [2] it was 18 nM.
Regarding `CCNC(=O)NCCCc1cccc2nc(C(C)C)oc12`, the inhibitory constant (Ki) in test [1] was 194 nM; in test [2] it was 52 nM.
Regarding `CCNC(=O)NCCCc1cccc2nc(-c3ccccc3)oc12`, the Ki was 340 nM in test [1] and 61 nM in test [2].
In the case of `O=C(NCCCc1cccc2nc(-c3ccccc3)oc12)C1CC1`, the inhibition constant (Ki) came to 23 nM in test [1] and 38 nM in test [2].
Taken in the same sequence, the figures for `CCCC(=O)NCCCc1cccc2nc(-c3ccccc3)oc12` were 60 nM and 17 nM.
Take `CC(=O)NCCCc1cccc2nc(-c3ccccc3)oc12`: the Ki in test [1] was 40 nM; in test [2], 89 nM.
As for `O=C(NCCCc1cccc2nc(CCCCc3ccccc3)oc12)C1CC1`, the inhibition constant Ki was found to be 0.63 nM in test [1] and 22 nM in test [2].
Taken in the same sequence, the figures for `CCCC(=O)NCCCc1cccc2nc(CC)oc12` were 8.1 nM and 1 nM.
Take `Cc1nc2cccc(CCCNC(=O)C3CC3)c2o1`: the values for the Ki in test [1] and in test [2] were 0.7 nM and 2.7 nM, respectively. In addition, the Activity in test [5] came out at 0.96. The compound also yielded an EC50 in test [6] of 0.74 nM.
Take `CCNC(=O)NCCCc1cccc2nc(C)oc12`: the Ki in test [1] was 50 nM; in test [2] it was 26 nM.
On to `CCCc1nc2cccc(CCCNC(=O)C(C)C)c2o1`, for which the inhibitory constant (Ki) in test [1] was 60 nM; in test [2], 29 nM.
Take `CC(C)C(=O)NCCCc1cccc2nc(C(C)C)oc12`: the Ki in test [1] came to 40 nM; in test [2], 88 nM.
